In paper PMC7155171, “Probing the Open Global Health Chemical Diversity Library for Multistage-Active Starting Points for Next-Generation Antimalarials” (ACS Infectious Diseases, 2020):
Like-named read-outs stand apart in the source and are kept apart here.

Experiments:
[1] = tested on: P. falciparum Dd2 (PfLuc) line expressing firefly luciferase, asexual blood stage; assay: microbe, parasite or virus in culture; assay type: cell-based, Plasmodium falciparum; conditions: Plasmodium falciparum
P. falciparum Dd2 = assay: SYBR green I asexual blood stage proliferation assay (96 h); assay type: cell-based, Plasmodium falciparum; conditions: for IC50 / Emax: Plasmodium falciparum; for CDD P. falciparum Sybr Green I ABS Dd2 Dose Response: Maximum measured (%): Dd2, 96 h
[2] = DD2, read-out: CDD P. falciparum Luciferase ABS 11-pt Reconfirmation Dose Response (48hr): IC50 (μM), 11-pt dose response, 48hr
[3] = DD2, 8-pt dose response, 96hr, read-out: CDD P. falciparum Luciferase ABS 8-pt Reconfirmation Dose Response (96hr): IC50
[4] = DD2, 8-pt dose response, 96hr, read-out: CDD P. falciparum Luciferase ABS 8-pt Reconfirmation Dose Response (96hr): Maximum inhibition (%)
[5] = DD2, 11-pt dose response, 48hr, read-out: CDD P. falciparum Luciferase ABS 11-pt Reconfirmation Dose Response (48hr): Maximum inhibition (%)
[6] = DD2, 11-pt dose response, 96hr, read-out: CDD P. falciparum Luciferase ABS 11-pt Reconfirmation Dose Response (96hr): IC50
[7] = DD2, 11-pt dose response, 96hr, read-out: CDD P. falciparum Luciferase ABS 11-pt Reconfirmation Dose Response (96hr): Maximum inhibition (%)
[8] = DD2, Sybr Green I, 11-pt dose response, 96hr, read-out: CDD P. falciparum Sybr Green I ABS 11-pt Reconfirmation Dose Response (96hr): IC50
[9] = DD2, Sybr Green I, 11-pt dose response, 96hr, read-out: CDD P. falciparum Sybr Green I ABS 11-pt Reconfirmation Dose Response (96hr): Maximum inhibition (%)
[10] = DD2, read-out: CDD P. falciparum Luc 11pt dose response (96hr, n=2): IC50 (μM), 96hr, 11-point, n=2
[11] = DD2, read-out: CDD P. falciparum Luciferase 11pt dose response (48hr, n=2): IC50 (μM), 48hr, 11-point, n=2
[12] = DD2, 48hr, 11-point, read-out: CDD P. falciparum Luciferase ABS 11-pt Reconfirmation Dose Response (48hr): Maximum inhibition (%)
[13] = DD2, 96hr, 11-point, read-out: CDD P. falciparum Luciferase ABS 11-pt Reconfirmation Dose Response (96hr): Maximum inhibition (%)
[14] = 96 h incubation, Dd2 luciferase, read-out: 96 hour Pfluc IC50
[15] = DD2, 96 h, read-out: CDD P. falciparum Sybr Green I ABS Dd2 Dose Response: IC50
[16] = DD2, read-out: P. falciparum Luciferase ABS 11-pt Reconfirmation Dose Response (48hr): IC50, 11-pt dose response, 48hr
[17] = DD2, 8-pt dose response, 96hr, read-out: P. falciparum Luciferase ABS 8-pt Reconfirmation Dose Response (96hr): IC50
[18] = DD2, 8-pt dose response, 96hr, read-out: P. falciparum Luciferase ABS 8-pt Reconfirmation Dose Response (96hr): Maximum inhibition (%)
[19] = DD2, 11-pt dose response, 96hr, read-out: P. falciparum Luciferase ABS 11-pt Reconfirmation Dose Response (96hr): IC50
[20] = DD2, 11-pt dose response, 96hr, read-out: P. falciparum Luciferase ABS 11-pt Reconfirmation Dose Response (96hr): Maximum inhibition (%)
[21] = DD2, 11-pt dose response, 96hr, read-out: P. falciparum Sybr Green I ABS 11-pt Reconfirmation Dose Response (96hr): IC50
[22] = DD2, 11-pt dose response, 96hr, read-out: P. falciparum Sybr Green I ABS 11-pt Reconfirmation Dose Response (96hr): Maximum inhibition (%)
[23] = DD2, 11-pt dose response, 48hr, read-out: P. falciparum Luciferase ABS 11-pt Reconfirmation Dose Response (48hr): Maximum inhibition (%)

| Structure (SMILES) | IC50 [1, 2] [µM] | IC50 [1, 3] [µM] | Emax [1, 4] [%] | Emax [1, 5] [%] | IC50 [1, 6] [µM] | Emax [1, 7] [%] | IC50 (P. falciparum Dd2; [8]) [nM] | Emax (P. falciparum Dd2; [9]) [%] | also measured |
| --- | --- | --- | --- | --- | --- | --- | --- | --- | --- |
| Nc1nc2c(c(N3CCCC(c4nnc5ccccn45)C3)n1)CCNC2 (stereo not shown) [DDD01254485] | > 12.5 | 0.18 | 90.3 | 46.1 | 0.312 | 95.2 | > 12500 | 52.8 |  |
| CNc1nc(C)cc(NC2CCCN(C3Cc4ccccc4C3)C2)n1 (stereo not shown) [DDD01254555] | 2.19 | 1.11 | 92.9 | 82.6 | 1.07 | 100 | 1020 | 87 |  |
| Cc1ccccc1N1CCCN(CC2(O)CCCNC2)CC1 (stereo not shown) [DDD01254676] | 3.64 | 0.54 | 90.4 | 89.1 | 1.37 | 97.2 | 1590 | 91.2 |  |
| CN(Cc1ncc[nH]1)c1nc(-c2ccccn2)nc2c1CCNCC2 [DDD01254777, CN(Cc1ncc[nH]1)c1nc(nc2CCNCCc12)-c1ccccn1] |  |  |  |  |  |  |  |  | IC50 [1, 10]: 0.214 µM; IC50 [1, 11]: 10.2 µM; Emax [1, 12]: 65.1%; Emax [1, 13]: 94.2%; IC50 [1, 14]: 0.21 µM; CDD P. falciparum Sybr Green I ABS Dd2 Dose Response: Maximum measured (%) (P. falciparum Dd2): 65.7%; IC50 (P. falciparum Dd2; [15]): > 4160 nM |
| CN1CCC(C2CCN(Cc3cccc(-n4cccn4)c3)CC2)C1 (stereo not shown) [DDD01255349] | 0.818 | 0.65 | 93.2 | 97.1 | 0.46 | 100 | 2050 | 94.8 |  |
| Clc1cccc2c3c([nH]c12)CCN(Cc1cc2n(n1)CCCNC2)C3 [DDD01255494] |  |  |  |  |  |  |  |  | IC50 [1, 16]: 3.79 µM; IC50 [1, 17]: 1.21 µM; Emax [1, 18]: 91.2%; IC50 [1, 19]: 1.07 µM; Emax [1, 20]: 99.6%; IC50 (P. falciparum Dd2; [21]): 3520 nM; Emax (P. falciparum Dd2; [22]): 91% |
| COc1ccc(-c2ccccc2CCN)c(OC)c1OC [DDD01256178] | 3.3 | 1 | 87.9 | 83.2 | 2.11 | 98.8 | 3030 | 89.5 |  |
| CC(C)(C)c1nccc(C2(c3ccccc3Cl)CCNCC2)n1 [DDD01256872] |  |  |  |  |  |  |  |  | IC50 [1, 16]: 5.56 µM; IC50 [1, 17]: 2.03 µM; Emax [1, 18]: 78.8%; Emax [1, 23]: 91.9%; IC50 [1, 19]: 1.22 µM; Emax [1, 20]: 98.3%; IC50 (P. falciparum Dd2; [21]): 1710 nM; Emax (P. falciparum Dd2; [22]): 74.4% |
| CO[C@H]1CN(C(C)C)C[C@@H]1NC(=O)c1cc(-c2ccccc2O)n[nH]1 [DDD01257008] |  |  |  |  |  |  |  |  | IC50 [1, 16]: 7.18 µM; IC50 [1, 17]: 1.29 µM; Emax [1, 18]: 94.7%; Emax [1, 23]: 87.1%; IC50 [1, 19]: 3.21 µM; Emax [1, 20]: 97.2%; IC50 (P. falciparum Dd2; [21]): 4520 nM; Emax (P. falciparum Dd2; [22]): 94.2% |
| CC(C)n1ccnc1C1CCCN(c2ccnc3ccccc23)C1 (stereo not shown) [DDD01257414] | 2.09 | 0.8 | 94.6 | 95.8 | 1.64 | 99.7 | 1940 | 98.5 |  |
| CC(C)N1CCC(NCc2cccnc2N(C)Cc2ccccc2)CC1 [DDD01257477] | > 12.5 | 0.45 | 89.2 | 61.1 | 3.84 | 87.8 | 163 |  |  |
| Cc1nc[nH]c1CN(C)CC1CCCN(CCc2ccc(Cl)cc2)C1 (stereo not shown) [DDD01257555] | 1.62 | 0.65 | 93.5 | 99.6 | 0.463 | 99.9 | 963 | 98.8 |  |
| Clc1ccccc1C1(c2ccnc(CC3CC3)n2)CCNCC1 [DDD01257764] | 3.74 | 0.27 | 92.2 | 90.6 | 0.581 | 98 | 422 | 70.6 | IC50 [1, 14]: 0.58 µM |
| OCC1CCCCN1c1ccc(-c2nc(-c3ccccc3F)no2)cn1 (stereo not shown) [DDD01257937] | 1.36 | 0.46 | 90.5 | 83.7 | 1.23 | 89.1 | > 12500 | 41.3 |  |
| Clc1ccccc1C1(c2ccnc(-c3ccncc3)n2)CCNCC1 [DDD01257938] | 4.26 | 0.31 | 93.5 | 98.2 | 0.482 | 99.5 | 2220 | 98.9 |  |
| CN(Cc1cccc(O)c1)CC1CCCN(CCc2ccc(Cl)cc2)C1 (stereo not shown) [DDD01257948] | 2.24 | 0.67 | 94.6 | 97.4 | 1.38 | 99.5 | 802 | 98 |  |
| CCn1ccnc1CN1CCCC(CO)(Cc2cccc(Cl)c2)C1 (stereo not shown) [DDD01258327] |  |  |  |  |  |  |  |  | IC50 [1, 16]: > 12.5 µM; IC50 [1, 17]: 2.14 µM; Emax [1, 18]: 81.2%; Emax [1, 23]: 38.3%; IC50 [1, 19]: 2.68 µM; Emax [1, 20]: 82.9%; IC50 (P. falciparum Dd2; [21]): 3020 nM; Emax (P. falciparum Dd2; [22]): 58.2% |
| COc1cc(CNCC(O)c2cccc(F)c2)cc2c1OCO2 (stereo not shown) [DDD01296688] | 3.64 | 0.82 |  | 88.9 | 1.77 | 98.5 | 4840 | 88.3 |  |
| COc1cc(CNCC(O)c2ccc(F)cc2F)cc2c1OCO2 (stereo not shown) [DDD01296730] |  |  |  |  |  |  |  |  | IC50 [1, 16]: 4.89 µM; IC50 [1, 17]: 1.16 µM; Emax [1, 18]: 88.4%; Emax [1, 23]: 87.3%; IC50 [1, 19]: 2.48 µM; Emax [1, 20]: 98.1%; IC50 (P. falciparum Dd2; [21]): 4870 nM |
| O=C(Nc1ccc(OC2CCCC2)cc1)C1CCCN1c1nccs1 (stereo not shown) [DDD01297375, O=C(Nc1ccc(OC2CCCC2)cc1)C1CCCN1c1nccs1] |  |  |  |  |  |  |  |  | IC50 [1, 10]: 0.0372 µM; IC50 [1, 11]: > 10 µM; Emax [1, 12]: 50%; Emax [1, 13]: 94.7%; CDD P. falciparum Sybr Green I ABS Dd2 Dose Response: Maximum measured (%) (P. falciparum Dd2): 45.3%; IC50 (P. falciparum Dd2; [15]): > 12500 nM |
| OCCN1CCC(CNCc2ccccc2OC(F)(F)F)CC1 [DDD01297525] |  |  |  |  |  |  |  |  | IC50 [1, 16]: > 12.5 µM; IC50 [1, 17]: 1.51 µM; Emax [1, 18]: 88.7%; Emax [1, 23]: 54.6%; IC50 [1, 19]: 5.42 µM; Emax [1, 20]: 88.7%; IC50 (P. falciparum Dd2; [21]): 7440 nM; Emax (P. falciparum Dd2; [22]): 77.9% |
| CC(O)CN1CCC(CNCc2cccc(OC(F)(F)F)c2)CC1 (stereo not shown) [DDD01297560] | > 12.5 | 1.04 | 91 | 58.6 | 5.4 | 87.8 | 2940 | 91.2 |  |
| Cc1ccnc(NC(=O)c2[nH]nc(C(C)C)c2Br)c1 [DDD01298775] | 3.6 | 0.39 | 91.3 | 93 | 1.39 | 97 | 8740 | 51.2 |  |
| CC(C)c1n[nH]c(C(=O)Nc2ccccn2)c1Br [DDD01298780] | 4.01 | 0.53 | 92.3 | 87.6 | 3.99 | 95.1 | 4270 | 51.4 |  |
| Cc1cc(C)n(C2CN(CC(O)c3cc(F)ccc3F)C2)n1 (stereo not shown) [DDD01298957] | 1.46 | 0.21 | 94.9 | 98.6 | 0.854 | 100 | 733 | 98.5 |  |
| CC(O)CN1CCC(CNCc2cccc(C(F)(F)F)c2)CC1 (stereo not shown) [DDD01300262] |  |  |  |  |  |  |  |  | IC50 [1, 16]: 9.69 µM; IC50 [1, 17]: 1.59 µM; Emax [1, 18]: 89.5%; Emax [1, 23]: 69.7%; IC50 [1, 19]: 4.76 µM; Emax [1, 20]: 92.7%; IC50 (P. falciparum Dd2; [21]): 2460 nM; Emax (P. falciparum Dd2; [22]): 91.1% |
